Structures are written as SMILES.

One assay concerns the target T1, recombinant human Meningioma Expressed Antigen 5 (MGEA5), also referred to as O-GlcNAcase (OGA) (Homo sapiens, UniProt O60502).
T1 construct: Full length OGA enzyme was purchased at OnGene (cat #TP322411); purchased OnGene (so in the source)
T1 sequence (O60502 1-916): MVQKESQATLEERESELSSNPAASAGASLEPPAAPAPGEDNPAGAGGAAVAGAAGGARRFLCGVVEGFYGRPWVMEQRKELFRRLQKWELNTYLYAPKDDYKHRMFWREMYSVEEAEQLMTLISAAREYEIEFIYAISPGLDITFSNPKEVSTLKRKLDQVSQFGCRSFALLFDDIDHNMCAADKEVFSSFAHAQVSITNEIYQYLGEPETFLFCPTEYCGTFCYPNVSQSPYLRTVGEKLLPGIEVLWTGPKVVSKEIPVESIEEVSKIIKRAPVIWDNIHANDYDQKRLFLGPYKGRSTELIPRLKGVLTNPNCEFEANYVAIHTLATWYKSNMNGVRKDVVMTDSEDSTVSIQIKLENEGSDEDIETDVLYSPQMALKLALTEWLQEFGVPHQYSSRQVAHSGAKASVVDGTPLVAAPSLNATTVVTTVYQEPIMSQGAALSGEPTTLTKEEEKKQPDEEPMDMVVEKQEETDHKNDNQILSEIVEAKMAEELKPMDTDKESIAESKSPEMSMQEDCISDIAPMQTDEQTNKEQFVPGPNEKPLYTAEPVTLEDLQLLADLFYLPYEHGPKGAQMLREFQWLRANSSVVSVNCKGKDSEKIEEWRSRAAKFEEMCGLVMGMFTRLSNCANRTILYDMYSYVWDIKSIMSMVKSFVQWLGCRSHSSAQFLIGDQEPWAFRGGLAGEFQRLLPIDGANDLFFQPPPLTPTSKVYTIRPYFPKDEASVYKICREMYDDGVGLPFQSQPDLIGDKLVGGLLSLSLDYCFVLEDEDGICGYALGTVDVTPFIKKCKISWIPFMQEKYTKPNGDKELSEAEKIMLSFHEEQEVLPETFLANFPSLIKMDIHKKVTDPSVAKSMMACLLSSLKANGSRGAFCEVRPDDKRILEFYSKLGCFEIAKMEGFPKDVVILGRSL
Put plainly: OGA biochemical assay (inhibition of FM-GlcNAc hydrolysis, fluorescence). The settings on record: maximal effect, read-out: Enzymatic Emax (%). The text has this: The assay is based on the inhibition of the hydrolysis of fluorescein mono-β-D-N-Acetyl-Glucosamine (FM-GlcNAc) (Mariappa et al. 2015, Biochem J 470:255) by the recombinant human Meningioma Expressed Antigen 5 (MGEA5), also referred to as O-GlcNAcase (OGA). The hydrolysis FM-GlcNAc (Marker Gene technologies, cat #M1485) results in the formation of β-D-N-glucosamineacetate and fluorescein. The fluorescence of the latter can be measured at excitation wavelength 485 nm and emission wavelength 538 nm. An increase in enzyme activity results in an increase in fluorescence signal. Full length OGA enzyme was purchased at OnGene (cat #TP322411). The enzyme was stored in 25 mM Tris.HCl, pH 7.3, 100 mM glycine, 10% glycerol at −20° C. Thiamet G and GlcNAcStatin were tested as reference compounds (Yuzwa et al. 2008 Nature Chemical Biology 4:483; Yuzwa et al. 2012 Nature Chemical Biology 8:393). The assay was performed in 200 mM Citrate/phosphate buffer supplemented with 0.005% Tween-20. 35.6 g Na2HPO42H2O (Sigma, #C0759) were dissolved in 1 L water to obtain a 200 mM solution. 19.2 g citric acid (Merck, #1.06580) was dissolved in 1 L water to obtain a 100 mM solution. pH of the sodiumphosphate solution was adjusted with the citric acid solution to 7.2. The buffer to stop the reaction consists of a 500 mM Carbonate buffer, pH 11.0. 734 mg FM-GlcNAc were dissolved in 5.48 mL DMSO to obtain a 250 mM solution and was stored at −20° C. OGA was used at a 2 nM concentration and FM-GlcNAc at a 100 uM final concentration. Dilutions were prepared in assay buffer.
50 nl of a compound dissolved in DMSO was dispensed on Black Proxiplate TM 384 Plus Assay plates (Perkin Elmer, #6008269) and 3 μl fl-OGA enzyme mix added subsequently. Plates were pre-incubated for 60 min at room temperature and then 2 μl FM-GlcNAc substrate mix added. […] Plates were briefly centrifuged for 1 min at 1000 rpm and incubate at room temperature for 6 h. To stop the reaction 5 μl STOP buffer were added and plates centrifuge again 1 min at 1000 rpm. Fluorescence was quantified in the Thermo Scientific Fluoroskan Ascent or the PerkinElmer EnVision with excitation wavelength 485 nm and emission wavelength 538 nm.
For analysis a best-fit curve is fitted by a minimum sum of squares method. From this an IC50 value and Hill coefficient was obtained. High control (no inhibitor) and low control (saturating concentrations of standard inhibitor) were used to define the minimum and maximum values.
Usually Emax stands for the size of the effect at its maximum, as opposed to the concentration needed. `Cc1cc(CO[C@@H]2CCCN([C@H](C)c3ccc4c(n3)OCCO4)C2)cc(C)n1` (mixture of isomers) [Product 112]: the Emax came out at 98%.
Same read-out and setting: the figure for `Cc1cc(C[C@H]2CCCN(C(C)c3ccc4c(n3)OCCO4)C2)cc(OC(F)(F)F)n1` (mixture of isomers) [Product 67] is 102%; for `Cc1cc(C[C@H]2CCCN(C(C)c3cc4c(cc3F)OCCO4)C2)cc(C)n1` (single isomer, unassigned) [Product 42] it is 99%.
In the case of `Cc1cc(CC2(F)CCCN([C@H](C)c3ccc4c(n3)OCCO4)C2)cc(C)n1` (single isomer, unassigned) [Product 176], the Emax was 99%.
Consider `Cc1cc(C[C@H]2CCCN(C(C)c3cnc4c(c3)OCC4)C2)cc(C)n1` (mixture of isomers) [Product 57], for which the Emax was found to be 101%.
Regarding `COc1cc(C2CCCN(C(C)c3ccc4c(n3)OCCO4)C2)cc(C(F)(F)F)n1` (stereo not shown) [Product 10], the Emax was found to be 100%.
Regarding `Cc1cc([C@H]2CCCN(C(C)c3nc4c(cc3F)CCO4)C2)cc(C)n1` (single isomer, unassigned) [Product 171], the Emax was 100%.

Still in this assay, the particulars now being: read-out: Enzymatic hOGA, pIC50 (converted).
`Cc1cc(CO[C@@H]2CCCN([C@H](C)c3ccc4c(n3)OCCO4)C2)cc(C)n1` (mixture of isomers) [Product 112]: the IC50 is 200 nM.
For `Cc1cc(C[C@H]2CCCN(C(C)c3ccc4c(n3)OCCO4)C2)cc(OC(F)(F)F)n1` (mixture of isomers) [Product 67], the IC50 was 7.94 nM.
On the same count and under the same terms, the figure for `Cc1cc(C[C@H]2CCCN(C(C)c3cc4c(cc3F)OCCO4)C2)cc(C)n1` (single isomer, unassigned) [Product 42] is 2 nM; for `Cc1cc(CC2(F)CCCN([C@H](C)c3ccc4c(n3)OCCO4)C2)cc(C)n1` (single isomer, unassigned) [Product 176] it is 15.8 nM; for `Cc1cc(C[C@H]2CCCN(C(C)c3cnc4c(c3)OCC4)C2)cc(C)n1` (mixture of isomers) [Product 57] it is 12.6 nM.
The same measure, in the same setting: the figure for `COc1cc(C2CCCN(C(C)c3ccc4c(n3)OCCO4)C2)cc(C(F)(F)F)n1` (stereo not shown) [Product 10] is 25.1 nM; for `Cc1cc([C@H]2CCCN(C(C)c3nc4c(cc3F)CCO4)C2)cc(C)n1` (single isomer, unassigned) [Product 171] it is 2.51 nM.

In another assay the target is T2, OGA (Homo sapiens, UniProt O60502).
T2 construct: endogenous in cells; host or cells: HEK293 cells inducible for P301L mutant human Tau (2N4R)
T2 sequence (O60502 1-916): T1 sequence (O60502 1-916)
Put plainly: OGA cellular assay (ICC detection of O-GlcNAcylated proteins in HEK293 cells inducible for P301L mutant human Tau). The class given is cell-based. The settings on record: HEK293, HEK293 cells inducible for P301L mutant human Tau, maximal effect; Thiamet G 200 uM as maximum. The method, then:
HEK293 cells inducible for P301L mutant human Tau (isoform 2N4R) were established at Janssen. Thiamet-G was used for both plate validation (high control) and as reference compound (reference EC50 assay validation). OGA inhibition is evaluated through the immunocytochemical (ICC) detection of O-GlcNAcylated proteins by the use of a monoclonal antibody (CTD110.6; Cell Signaling, #9875) detecting 0-GlcNAcylated residues as previously described (Dorfmueller et al. 2010 Chemistry & biology, 17:1250). Inhibition of OGA will result in an increase of O-GlcNAcylated protein levels resulting in an increased signal in the experiment. Cell nuclei are stained with Hoechst to give a cell culture quality control and a rough estimate of immediate compounds toxicity, if any. ICC pictures are imaged with a Perkin Elmer Opera Phenix plate microscope and quantified with the provided software Perkin Elmer Harmony 4.1.
Cells were propagated in DMEM high Glucose (Sigma, #D5796) following standard procedures. 2 days before the cell assay cells are split, counted and seeded in Poly-D-Lysine (PDL) coated 96-wells (Greiner, #655946) plate at a cell density of 12,000 cells per cm^2 (4,000 cells per well) in 100 μl of Assay Medium (Low Glucose medium is used to reduce basal levels of GlcNAcylation) (Park et al. 2014 The Journal of biological chemistry 289:13519). At the day of compound test medium from assay plates was removed and replenished with 90 μl of fresh Assay Medium. 10 μl of compounds at a 10 fold final concentration were added to the wells. Plates were centrifuged shortly before incubation in the cell incubator for 6 hours. DMSO concentration was set to 0.2%. Medium is discarded by applying vacuum. For staining of cells medium was removed and cells washed once with 100 μl D-PBS (Sigma, #D8537). From next step onwards unless other stated assay volume was always 50 μl and incubation was performed without agitation and at room temperature. Cells were fixed in 50 μl of a 4% paraformaldehyde (PFA, Alpha aesar, #043368) PBS solution for 15 minutes at room temperature. […] Before analysis samples were washed 2 times manually for 5 minutes in ICC base buffer.
Imaging is performed using Perkin Elmer Phenix Opera using a water 20× objective and recording 9 fields per well. Intensity readout at 488 nm is used as a measure of O-GlcNAcylation level of total proteins in wells. To assess potential toxicity of compounds nuclei were counted using the Hoechst staining. IC50-values are calculated using parametric non-linear regression model fitting. As a maximum inhibition Thiamet G at a 200 uM concentration is present on each plate. In addition, a concentration response of Thiamet G is calculated on each plate.
Turning to `Cc1cc(CO[C@@H]2CCCN([C@H](C)c3ccc4c(n3)OCCO4)C2)cc(C)n1` (mixture of isomers) [Product 112], the Emax was 8%.
In turn, `Cc1cc(C[C@H]2CCCN(C(C)c3ccc4c(n3)OCCO4)C2)cc(OC(F)(F)F)n1` (mixture of isomers) [Product 67] showed an Emax of 89%.
In the case of `Cc1cc(C[C@H]2CCCN(C(C)c3cc4c(cc3F)OCCO4)C2)cc(C)n1` (single isomer, unassigned) [Product 42], the Emax is 86%.
Same read-out and setting: the figure for `Cc1cc(CC2(F)CCCN([C@H](C)c3ccc4c(n3)OCCO4)C2)cc(C)n1` (single isomer, unassigned) [Product 176] is 69%.
In turn, `Cc1cc(C[C@H]2CCCN(C(C)c3cnc4c(c3)OCC4)C2)cc(C)n1` (mixture of isomers) [Product 57] returned an Emax of 78%.
The same measure, in the same setting: the figure for `COc1cc(C2CCCN(C(C)c3ccc4c(n3)OCCO4)C2)cc(C(F)(F)F)n1` (stereo not shown) [Product 10] is 52%.
On to `Cc1cc([C@H]2CCCN(C(C)c3nc4c(cc3F)CCO4)C2)cc(C)n1` (single isomer, unassigned) [Product 171], for which the maximal response (Emax) came to 78%.

The same assay, now with this note: HEK293 cells inducible for P301L mutant human Tau, 6 hours incubation; read-out: Cellular hOGA; pEC50 (converted).
Take `Cc1cc(CO[C@@H]2CCCN([C@H](C)c3ccc4c(n3)OCCO4)C2)cc(C)n1` (mixture of isomers) [Product 112]: the EC50 was over 1000 nM.
Turning to `Cc1cc(C[C@H]2CCCN(C(C)c3ccc4c(n3)OCCO4)C2)cc(OC(F)(F)F)n1` (mixture of isomers) [Product 67], the EC50 was 79.4 nM.
Turning to `Cc1cc(C[C@H]2CCCN(C(C)c3cc4c(cc3F)OCCO4)C2)cc(C)n1` (single isomer, unassigned) [Product 42], the EC50 is 6.31 nM.
Still for that read-out and setting: the figure for `Cc1cc(CC2(F)CCCN([C@H](C)c3ccc4c(n3)OCCO4)C2)cc(C)n1` (single isomer, unassigned) [Product 176] is 126 nM; for `Cc1cc(C[C@H]2CCCN(C(C)c3cnc4c(c3)OCC4)C2)cc(C)n1` (mixture of isomers) [Product 57] it is 158 nM; for `COc1cc(C2CCCN(C(C)c3ccc4c(n3)OCCO4)C2)cc(C(F)(F)F)n1` (stereo not shown) [Product 10] it is 977 nM.
`Cc1cc([C@H]2CCCN(C(C)c3nc4c(cc3F)CCO4)C2)cc(C)n1` (single isomer, unassigned) [Product 171]: the EC50 was 2.51 nM.

The record behind these values is US20210300943A1, “OGA INHIBITOR COMPOUNDS” (Janssen Pharmaceutica NV, priority 2018, published 2021).
